Among the data in patent US9199959B2, “HIV replication inhibitor” (Shionogi & Co., Ltd., priority 2011, dated 2015) are EC50 and mutagenicity values, retold here.

The term EC50 denotes the midpoint of the concentration-response curve. A lower EC50 goes with higher potency in that assay.

For data set [1], the system named is HIV (HTLV-III B strain). Nature of the data set: HIV replication inhibition assay (MTT, MT-4 cells). The data set is classed as cell-based. The following applies: Human immunodeficiency virus 1, MT4, 96 h, four days culture, concentration at which cell cytotoxicity by virus is inhibited 50%. The protocol: HIV (HTLV-III B strain) persistent infected human T cell strain Molt-4 clone 8 was cultured in 10% Fetal Bovine Serum-containing RPMI-1640 medium and the supernatant was filtrated, then the virus titer was measured and the solution was stored at −80° C. Each anti-human immunodeficiency virus active substance was diluted with the above cultured medium to the designated concentration, which was dispensed into 96 well micro plate by 50 μL. Next, a MT-4 cell suspended liquid was dispensed by 100 μL (2.5×10^4 cells), then the above HIV-containing supernatant diluted with the above cultured medium was added thereto by 50 μL (60 pfu (plaque forming unit)).
The obtained mixture was cultured at 37° C. in CO2 incubator for four days, then 3-(4,5-dimehylthiazole-2-yl)-2,5-diphenyltetrazolynium bromide (MTT) 5 mg/mL in PBS was added to each well by 30 μL, followed by 1 hr-cultivation. In this step, as formazan was precipitated by reduction of MTT in living cells, the cell supernatant was removed from all well by 150 μL, then a 150 μL of solution (10% Triton X-100 and […]) was added thereto, followed by shaking with a plate mixer, to elute formazan. The formazan was measured with a microreader at OD: 560 nm and 690 nm (wavelength) and the result was compared with the reference. EC50 means the compound concentration at which cell cytotoxicity by virus is inhibited 50%.

Data set [2] concerns Salmonella typhimurium TA98 strain, TA100 strain. It is filed as cell-based. The following applies: Salmonella typhimurium TA98, TA100, non-metabolism and metabolism activating condition. How it is done: The mutagenicity of the compound of the present invention was assayed.
20 μL of freezing-stored rat typhoid bacillus (Salmonella typhimurium TA98 strain, TA100 strain) was inoculated on 10 mL of a liquid nutrient medium (2.5% Oxoid nutrient broth No. 2), and this was cultured before shaking at 37° C. for 10 hours. 9 mL of a bacterial solution of the TA98 strain was centrifuged (2000×g, 10 minutes) to remove a culturing solution. The bacteria was suspended in F buffer (K2HPO4: 3.5 g/L, KH2PO4: 1 g/L, (NH4)2SO4: 1 g/L, trisodium citrate dehydrate: 0.25 g/L, MgSO4.7H2O: 0.1 g/L), and the suspension was added to 110 mL of an Exposure medium (Micro F buffer containing Biotin: 8 μg/mL, histidine: 0.2 μg/mL, glucose: 8 mg/mL). The TA100 strain was added to 120 mL of the Exposure medium per 3.16 mL of the bacterial solution to prepare a test bacterial solution. […] of a test substance DMSO solution (several stage dilution from maximum dose 50 mg/mL at 2- to 3-fold ratio), DMSO as a negative control, 50 μg/mL of 4-nitroquinoline-1-oxide DMSO solution for the TA98 strain, 0.25 μg/mL of 2-(2-furyl)-3-(5-nitro-2-furyl)acrylamide DMSO solution for the TA100 strain each under the non-metabolism activating condition, 40 μg/mL of 2-aminoanthracene DMSO solution for the TA98 strain, 20 μg/mL of 2-aminoanthracene DMSO solution for the TA100 strain each under the metabolism activating condition all as a positive control, and 588 μL of the test bacterial solution (a mixed solution of 498 μL of the test bacterial solution and 90 μL of S9 mix under the metabolism activating condition) were mixed, and this was shaking-cultured at 37° C. for 90 minutes. […] Since a well containing a bacterium which has obtained the proliferation ability by mutation of an amino acid (histidine) synthesizing enzyme gene turns from purple to yellow due to a pH change, the bacterium proliferation well which has turned to yellow in 48 wells per dose is counted, and was assessed by comparing with a negative control group. […]

`CCNC(=O)Nc1c(C)c(C(OC(C)(C)C)C(=O)O)c(-c2ccc(C)c(C)c2)c(C)c1-c1ccc(C)c(C)c1` (stereo not shown) [Compound I-11] had a concentration for a half-maximal effect (EC50) in data set [1] of 21 nM. The mutagenicity entry in data set [2] is on record as “negative”.

In data set [1], `Cc1ccc(-c2c(C)c(-c3ccc(C)c(C)c3)c(C(OC(C)(C)C)C(=O)O)c(C)c2NS(C)(=O)=O)cc1C` (stereo not shown) [Compound I-12] gave an EC50 of 6.4 nM. The mutagenicity entry in data set [2] is recorded as “negative”.
